Test results taken from PubChem BioAssay (NCI).
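48-hour exposure; five concentrations; linearly interpolated endpoints. GI50: concentration for 50% inhibition of growth. TGI: total growth inhibition.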

Columns and labels:
Test in all cases: DTP human tumour cell line panel, 48 h; in the data active = GI50 below about 0.43 µM; inactive = the rest
MDA-MB-435 = tested on: MDA-MB-435
SK-MEL-2 melanoma = tested on: SK-MEL-2 melanoma
SW-620 colon = tested on: SW-620 colon
SK-OV-3 ovarian = tested on: SK-OV-3 ovarian
UO-31 renal = tested on: UO-31 renal
HCC-2998 colon = tested on: HCC-2998 colon
BT-549 breast = tested on: BT-549 breast
OVCAR-5 ovarian = tested on: OVCAR-5 ovarian
786-0 renal = tested on: 786-0 renal
OVCAR-3 ovarian = tested on: OVCAR-3 ovarian
HCT-116 colon = tested on: HCT-116 colon
HT29 colon = tested on: HT29 colon
A498 renal = tested on: A498 renal
A549 NSCLC = tested on: A549 NSCLC
UACC-257 melanoma = tested on: UACC-257 melanoma
HS 578T breast = tested on: HS 578T breast
MCF7 breast = tested on: MCF7 breast
LOX IMVI melanoma = tested on: LOX IMVI melanoma
MALME-3M melanoma = tested on: MALME-3M melanoma
RXF 393 renal = tested on: RXF 393 renal
OVCAR-8 ovarian = tested on: OVCAR-8 ovarian
NCI-H522 lung = tested on: NCI-H522 lung
SR leukemia = tested on: SR leukemia
DU-145 prostate = tested on: DU-145 prostate
HCT-15 colon = tested on: HCT-15 colon
RPMI-8226 leukemia = tested on: RPMI-8226 leukemia
COLO 205 colon = tested on: COLO 205 colon
NCI/ADR-RES ovarian = tested on: NCI/ADR-RES ovarian
KM12 colon = tested on: KM12 colon
SNB-19 CNS = tested on: SNB-19 CNS
SNB-75 CNS = tested on: SNB-75 CNS
T-47D breast = tested on: T-47D breast
M14 melanoma = tested on: M14 melanoma
K-562 leukemia = tested on: K-562 leukemia
EKVX NSCLC = tested on: EKVX NSCLC
CAKI-1 renal = tested on: CAKI-1 renal
MOLT-4 leukemia = tested on: MOLT-4 leukemia
NCI-H460 lung = tested on: NCI-H460 lung
NCI-H226 lung = tested on: NCI-H226 lung
U251 CNS = tested on: U251 CNS
OVCAR-4 ovarian = tested on: OVCAR-4 ovarian
SN12C renal = tested on: SN12C renal
SF-539 CNS = tested on: SF-539 CNS
TK-10 renal = tested on: TK-10 renal
SK-MEL-5 melanoma = tested on: SK-MEL-5 melanoma
CCRF-CEM leukemia = tested on: CCRF-CEM leukemia
MDA-MB-231 breast = tested on: MDA-MB-231 breast
UACC-62 melanoma = tested on: UACC-62 melanoma
PC-3 prostate = tested on: PC-3 prostate
SF-295 CNS = tested on: SF-295 CNS
SF-268 CNS = tested on: SF-268 CNS
HL-60(TB) leukemia = tested on: HL-60(TB) leukemia
IGROV1 ovarian = tested on: IGROV1 ovarian
ACHN renal = tested on: ACHN renal
HOP-92 NSCLC = tested on: HOP-92 NSCLC
SK-MEL-28 melanoma = tested on: SK-MEL-28 melanoma

C/C(=N\NC(=O)CSc1nc2sc3c(c2c(=O)n1-c1ccccc1)CCC(C)C3)c1ccc(Cl)cc1 (configuration not stated)
14.7 µM: TGI (SK-MEL-2 melanoma)
14.1 µM: TGI (M14 melanoma)
> 100 µM: TGI (SW-620 colon) | TGI (HCC-2998 colon) | TGI (OVCAR-5 ovarian) | TGI (OVCAR-3 ovarian) | TGI (HCT-116 colon) | TGI (A498 renal) | TGI (A549 NSCLC) | TGI (HS 578T breast) | TGI (MCF7 breast) | TGI (MALME-3M melanoma) | TGI (SR leukemia) | TGI (DU-145 prostate) | TGI (RPMI-8226 leukemia) | TGI (KM12 colon) | TGI (SNB-19 CNS) | TGI (K-562 leukemia) | TGI (EKVX NSCLC) | TGI (CAKI-1 renal) | TGI (MOLT-4 leukemia) | TGI (NCI-H460 lung) | TGI (U251 CNS) | TGI (OVCAR-4 ovarian) | TGI (SN12C renal) | TGI (TK-10 renal) | TGI (CCRF-CEM leukemia) | TGI (MDA-MB-231 breast) | TGI (UACC-62 melanoma) | TGI (PC-3 prostate) | TGI (SF-295 CNS) | TGI (SF-268 CNS) | TGI (HL-60(TB) leukemia) | TGI (IGROV1 ovarian) | TGI (ACHN renal) | TGI (SK-MEL-28 melanoma)
17.5 µM: TGI (COLO 205 colon)
25.7 µM: TGI (HCT-15 colon)
15.7 µM: TGI (LOX IMVI melanoma)
active: GI50 (786-0 renal) 0.366 µM | GI50 (LOX IMVI melanoma) 0.348 µM | GI50 (HCT-15 colon) 0.387 µM
inactive: GI50 (MDA-MB-435) 3.86 µM | GI50 (SK-MEL-2 melanoma) 2.31 µM | GI50 (SW-620 colon) 3.26 µM | GI50 (SK-OV-3 ovarian) 3.68 µM | GI50 (UO-31 renal) 2.11 µM | GI50 (HCC-2998 colon) 2.76 µM | GI50 (BT-549 breast) 3.6 µM | GI50 (OVCAR-5 ovarian) 3.52 µM | GI50 (OVCAR-3 ovarian) 3.33 µM | GI50 (HCT-116 colon) 0.578 µM | GI50 (HT29 colon) 3.13 µM | GI50 (A498 renal) > 100 µM | GI50 (A549 NSCLC) 2.57 µM | GI50 (UACC-257 melanoma) 16.1 µM | GI50 (HS 578T breast) 8.85 µM | GI50 (MCF7 breast) 0.439 µM | GI50 (MALME-3M melanoma) 11.8 µM | GI50 (RXF 393 renal) 1.53 µM | GI50 (OVCAR-8 ovarian) 3.31 µM | GI50 (NCI-H522 lung) 3.39 µM | GI50 (SR leukemia) 0.735 µM | GI50 (DU-145 prostate) 3.63 µM | GI50 (RPMI-8226 leukemia) 2.83 µM | GI50 (COLO 205 colon) 2.94 µM | GI50 (NCI/ADR-RES ovarian) 2.63 µM | GI50 (KM12 colon) 2.66 µM | GI50 (SNB-19 CNS) 4.89 µM | GI50 (SNB-75 CNS) 2.55 µM | GI50 (T-47D breast) 3.55 µM | GI50 (M14 melanoma) 2.34 µM | GI50 (K-562 leukemia) 0.592 µM | GI50 (EKVX NSCLC) 5.08 µM | GI50 (CAKI-1 renal) 2.04 µM | GI50 (MOLT-4 leukemia) 0.575 µM | GI50 (NCI-H460 lung) 1.16 µM | GI50 (NCI-H226 lung) 13 µM | GI50 (U251 CNS) 1.98 µM | GI50 (OVCAR-4 ovarian) 2.2 µM | GI50 (SN12C renal) 3.4 µM | GI50 (SF-539 CNS) 0.866 µM | GI50 (TK-10 renal) 4.64 µM | GI50 (SK-MEL-5 melanoma) 4.8 µM | GI50 (CCRF-CEM leukemia) 0.742 µM | GI50 (MDA-MB-231 breast) 4.67 µM | GI50 (UACC-62 melanoma) 3.57 µM | GI50 (PC-3 prostate) 3.26 µM | GI50 (SF-295 CNS) 4.18 µM | GI50 (SF-268 CNS) 3.73 µM | GI50 (HL-60(TB) leukemia) 1.51 µM | GI50 (IGROV1 ovarian) 2.82 µM | GI50 (ACHN renal) 1.7 µM | GI50 (HOP-92 NSCLC) 1.33 µM | GI50 (SK-MEL-28 melanoma) 7.76 µM
4.02 µM: TGI (SF-539 CNS)
68 µM: TGI (T-47D breast)
39.1 µM: TGI (NCI-H522 lung)
26.5 µM: TGI (BT-549 breast)
15.8 µM: TGI (UO-31 renal)
38.1 µM: TGI (786-0 renal)
66.1 µM: TGI (MDA-MB-435)
13.7 µM: TGI (SNB-75 CNS)
12.6 µM: TGI (NCI/ADR-RES ovarian)
9.88 µM: TGI (HOP-92 NSCLC)
13.3 µM: TGI (HT29 colon)
19.5 µM: TGI (SK-MEL-5 melanoma)
84.7 µM: TGI (OVCAR-8 ovarian)
95.1 µM: TGI (UACC-257 melanoma)
36.5 µM: TGI (SK-OV-3 ovarian)
52.7 µM: TGI (NCI-H226 lung)
8.71 µM: TGI (RXF 393 renal)
